Common to all, as to test: Competitive isoTOP-ABPP in situ (fragment-treated cells)
Format in all cases: cell-based

Assay [1] has as its target cysteines in MDA-MB-231 and Ramos cells (Homo sapiens, UniProt O14980).
Assay [2] has as its target cysteines in MDA-MB-231 and Ramos cells (Homo sapiens, UniProt Q14137).
Assay [3] addresses cysteines in MDA-MB-231 and Ramos cells (Homo sapiens, UniProt Q15118).
In assay [4] the target is T1, cysteines in MDA-MB-231 and Ramos cells (Homo sapiens, UniProt Q2NL82).
T1 sequence (Q2NL82 1-804): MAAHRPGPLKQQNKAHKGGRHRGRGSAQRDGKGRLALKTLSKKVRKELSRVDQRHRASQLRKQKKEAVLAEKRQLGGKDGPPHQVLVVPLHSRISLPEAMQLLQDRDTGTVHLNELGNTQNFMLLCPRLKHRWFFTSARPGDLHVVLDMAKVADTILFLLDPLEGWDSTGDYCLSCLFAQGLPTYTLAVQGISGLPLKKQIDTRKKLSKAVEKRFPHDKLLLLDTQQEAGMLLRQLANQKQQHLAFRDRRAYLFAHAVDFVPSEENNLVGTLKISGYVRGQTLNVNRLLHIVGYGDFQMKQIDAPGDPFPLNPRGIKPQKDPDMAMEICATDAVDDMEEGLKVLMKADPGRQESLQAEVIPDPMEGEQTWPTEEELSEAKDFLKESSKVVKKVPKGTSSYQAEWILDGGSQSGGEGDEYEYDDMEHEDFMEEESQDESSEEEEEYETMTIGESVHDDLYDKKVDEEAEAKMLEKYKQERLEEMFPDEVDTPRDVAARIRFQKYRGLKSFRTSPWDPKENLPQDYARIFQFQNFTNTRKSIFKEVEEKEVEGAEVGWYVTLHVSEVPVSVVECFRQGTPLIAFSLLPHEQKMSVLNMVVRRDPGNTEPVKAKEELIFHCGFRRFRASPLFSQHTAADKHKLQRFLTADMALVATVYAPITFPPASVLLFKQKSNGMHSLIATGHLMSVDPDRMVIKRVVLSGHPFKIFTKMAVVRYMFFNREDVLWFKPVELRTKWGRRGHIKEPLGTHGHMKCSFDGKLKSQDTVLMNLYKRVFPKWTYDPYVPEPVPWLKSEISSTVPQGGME

The target in assay [5] is T2, cysteines in MDA-MB-231 and Ramos cells (Homo sapiens, UniProt Q8NFH5).
T2 sequence (Q8NFH5 1-326): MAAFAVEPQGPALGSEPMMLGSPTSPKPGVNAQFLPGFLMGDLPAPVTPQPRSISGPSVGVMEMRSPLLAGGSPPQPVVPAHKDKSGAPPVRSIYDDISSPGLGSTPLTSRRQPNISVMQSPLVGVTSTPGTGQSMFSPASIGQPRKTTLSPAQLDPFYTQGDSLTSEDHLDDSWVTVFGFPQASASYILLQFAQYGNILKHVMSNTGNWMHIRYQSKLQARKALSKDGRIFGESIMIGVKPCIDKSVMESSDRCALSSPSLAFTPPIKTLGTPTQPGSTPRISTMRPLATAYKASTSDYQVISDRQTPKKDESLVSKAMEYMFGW

Assay [6] has as its target cysteines in MDA-MB-231 and Ramos cells (Homo sapiens, UniProt Q9UJW0).
For assay [7], the target named is cysteines in MDA-MB-231 and Ramos cells (Homo sapiens, UniProt P27707).
The target of assay [8] is cysteines in MDA-MB-231 and Ramos cells (Homo sapiens, UniProt P48643).
The target in assay [9] is cysteines in MDA-MB-231 and Ramos cells (Homo sapiens, UniProt Q15149).
The target of assay [10] is T3, cysteines in MDA-MB-231 and Ramos cells (Homo sapiens, UniProt Q96RU2).
T3 sequence (Q96RU2 1-1077): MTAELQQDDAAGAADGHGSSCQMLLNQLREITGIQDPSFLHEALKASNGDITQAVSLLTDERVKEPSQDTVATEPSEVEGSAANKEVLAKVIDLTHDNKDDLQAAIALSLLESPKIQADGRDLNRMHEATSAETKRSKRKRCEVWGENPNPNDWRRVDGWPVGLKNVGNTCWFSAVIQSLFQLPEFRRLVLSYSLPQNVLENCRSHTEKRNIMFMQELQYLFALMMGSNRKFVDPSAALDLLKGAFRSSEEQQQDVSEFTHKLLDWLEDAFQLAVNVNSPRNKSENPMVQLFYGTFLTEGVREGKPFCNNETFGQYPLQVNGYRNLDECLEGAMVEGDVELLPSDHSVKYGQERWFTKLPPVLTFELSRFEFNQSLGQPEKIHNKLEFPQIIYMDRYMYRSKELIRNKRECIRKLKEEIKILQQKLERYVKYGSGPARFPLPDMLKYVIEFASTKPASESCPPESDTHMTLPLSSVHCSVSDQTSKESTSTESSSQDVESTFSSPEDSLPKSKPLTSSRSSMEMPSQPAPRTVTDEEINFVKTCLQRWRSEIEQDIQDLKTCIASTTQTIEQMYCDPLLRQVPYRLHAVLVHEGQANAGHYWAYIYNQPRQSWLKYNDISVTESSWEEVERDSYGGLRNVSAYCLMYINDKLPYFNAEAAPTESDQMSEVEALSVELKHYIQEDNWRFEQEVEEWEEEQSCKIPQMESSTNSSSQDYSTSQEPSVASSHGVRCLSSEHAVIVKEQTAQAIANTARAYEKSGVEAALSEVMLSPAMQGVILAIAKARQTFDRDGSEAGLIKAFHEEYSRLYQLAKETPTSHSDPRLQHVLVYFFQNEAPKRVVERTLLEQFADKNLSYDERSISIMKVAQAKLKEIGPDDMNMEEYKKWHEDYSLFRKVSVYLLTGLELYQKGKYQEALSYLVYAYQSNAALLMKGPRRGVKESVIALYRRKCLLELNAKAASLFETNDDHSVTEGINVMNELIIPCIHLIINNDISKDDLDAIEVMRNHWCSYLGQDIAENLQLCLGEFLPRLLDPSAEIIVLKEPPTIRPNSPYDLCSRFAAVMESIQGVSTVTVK

For assay [11], the target named is cysteines in MDA-MB-231 and Ramos cells (Homo sapiens, UniProt Q14980). The conditions noted are these: 200 μM, insitu, 231.

Chain of cysteines in MDA-MB-231 and Ramos cells (Homo sapiens, UniProt Q15149) (Q15149 whole entry): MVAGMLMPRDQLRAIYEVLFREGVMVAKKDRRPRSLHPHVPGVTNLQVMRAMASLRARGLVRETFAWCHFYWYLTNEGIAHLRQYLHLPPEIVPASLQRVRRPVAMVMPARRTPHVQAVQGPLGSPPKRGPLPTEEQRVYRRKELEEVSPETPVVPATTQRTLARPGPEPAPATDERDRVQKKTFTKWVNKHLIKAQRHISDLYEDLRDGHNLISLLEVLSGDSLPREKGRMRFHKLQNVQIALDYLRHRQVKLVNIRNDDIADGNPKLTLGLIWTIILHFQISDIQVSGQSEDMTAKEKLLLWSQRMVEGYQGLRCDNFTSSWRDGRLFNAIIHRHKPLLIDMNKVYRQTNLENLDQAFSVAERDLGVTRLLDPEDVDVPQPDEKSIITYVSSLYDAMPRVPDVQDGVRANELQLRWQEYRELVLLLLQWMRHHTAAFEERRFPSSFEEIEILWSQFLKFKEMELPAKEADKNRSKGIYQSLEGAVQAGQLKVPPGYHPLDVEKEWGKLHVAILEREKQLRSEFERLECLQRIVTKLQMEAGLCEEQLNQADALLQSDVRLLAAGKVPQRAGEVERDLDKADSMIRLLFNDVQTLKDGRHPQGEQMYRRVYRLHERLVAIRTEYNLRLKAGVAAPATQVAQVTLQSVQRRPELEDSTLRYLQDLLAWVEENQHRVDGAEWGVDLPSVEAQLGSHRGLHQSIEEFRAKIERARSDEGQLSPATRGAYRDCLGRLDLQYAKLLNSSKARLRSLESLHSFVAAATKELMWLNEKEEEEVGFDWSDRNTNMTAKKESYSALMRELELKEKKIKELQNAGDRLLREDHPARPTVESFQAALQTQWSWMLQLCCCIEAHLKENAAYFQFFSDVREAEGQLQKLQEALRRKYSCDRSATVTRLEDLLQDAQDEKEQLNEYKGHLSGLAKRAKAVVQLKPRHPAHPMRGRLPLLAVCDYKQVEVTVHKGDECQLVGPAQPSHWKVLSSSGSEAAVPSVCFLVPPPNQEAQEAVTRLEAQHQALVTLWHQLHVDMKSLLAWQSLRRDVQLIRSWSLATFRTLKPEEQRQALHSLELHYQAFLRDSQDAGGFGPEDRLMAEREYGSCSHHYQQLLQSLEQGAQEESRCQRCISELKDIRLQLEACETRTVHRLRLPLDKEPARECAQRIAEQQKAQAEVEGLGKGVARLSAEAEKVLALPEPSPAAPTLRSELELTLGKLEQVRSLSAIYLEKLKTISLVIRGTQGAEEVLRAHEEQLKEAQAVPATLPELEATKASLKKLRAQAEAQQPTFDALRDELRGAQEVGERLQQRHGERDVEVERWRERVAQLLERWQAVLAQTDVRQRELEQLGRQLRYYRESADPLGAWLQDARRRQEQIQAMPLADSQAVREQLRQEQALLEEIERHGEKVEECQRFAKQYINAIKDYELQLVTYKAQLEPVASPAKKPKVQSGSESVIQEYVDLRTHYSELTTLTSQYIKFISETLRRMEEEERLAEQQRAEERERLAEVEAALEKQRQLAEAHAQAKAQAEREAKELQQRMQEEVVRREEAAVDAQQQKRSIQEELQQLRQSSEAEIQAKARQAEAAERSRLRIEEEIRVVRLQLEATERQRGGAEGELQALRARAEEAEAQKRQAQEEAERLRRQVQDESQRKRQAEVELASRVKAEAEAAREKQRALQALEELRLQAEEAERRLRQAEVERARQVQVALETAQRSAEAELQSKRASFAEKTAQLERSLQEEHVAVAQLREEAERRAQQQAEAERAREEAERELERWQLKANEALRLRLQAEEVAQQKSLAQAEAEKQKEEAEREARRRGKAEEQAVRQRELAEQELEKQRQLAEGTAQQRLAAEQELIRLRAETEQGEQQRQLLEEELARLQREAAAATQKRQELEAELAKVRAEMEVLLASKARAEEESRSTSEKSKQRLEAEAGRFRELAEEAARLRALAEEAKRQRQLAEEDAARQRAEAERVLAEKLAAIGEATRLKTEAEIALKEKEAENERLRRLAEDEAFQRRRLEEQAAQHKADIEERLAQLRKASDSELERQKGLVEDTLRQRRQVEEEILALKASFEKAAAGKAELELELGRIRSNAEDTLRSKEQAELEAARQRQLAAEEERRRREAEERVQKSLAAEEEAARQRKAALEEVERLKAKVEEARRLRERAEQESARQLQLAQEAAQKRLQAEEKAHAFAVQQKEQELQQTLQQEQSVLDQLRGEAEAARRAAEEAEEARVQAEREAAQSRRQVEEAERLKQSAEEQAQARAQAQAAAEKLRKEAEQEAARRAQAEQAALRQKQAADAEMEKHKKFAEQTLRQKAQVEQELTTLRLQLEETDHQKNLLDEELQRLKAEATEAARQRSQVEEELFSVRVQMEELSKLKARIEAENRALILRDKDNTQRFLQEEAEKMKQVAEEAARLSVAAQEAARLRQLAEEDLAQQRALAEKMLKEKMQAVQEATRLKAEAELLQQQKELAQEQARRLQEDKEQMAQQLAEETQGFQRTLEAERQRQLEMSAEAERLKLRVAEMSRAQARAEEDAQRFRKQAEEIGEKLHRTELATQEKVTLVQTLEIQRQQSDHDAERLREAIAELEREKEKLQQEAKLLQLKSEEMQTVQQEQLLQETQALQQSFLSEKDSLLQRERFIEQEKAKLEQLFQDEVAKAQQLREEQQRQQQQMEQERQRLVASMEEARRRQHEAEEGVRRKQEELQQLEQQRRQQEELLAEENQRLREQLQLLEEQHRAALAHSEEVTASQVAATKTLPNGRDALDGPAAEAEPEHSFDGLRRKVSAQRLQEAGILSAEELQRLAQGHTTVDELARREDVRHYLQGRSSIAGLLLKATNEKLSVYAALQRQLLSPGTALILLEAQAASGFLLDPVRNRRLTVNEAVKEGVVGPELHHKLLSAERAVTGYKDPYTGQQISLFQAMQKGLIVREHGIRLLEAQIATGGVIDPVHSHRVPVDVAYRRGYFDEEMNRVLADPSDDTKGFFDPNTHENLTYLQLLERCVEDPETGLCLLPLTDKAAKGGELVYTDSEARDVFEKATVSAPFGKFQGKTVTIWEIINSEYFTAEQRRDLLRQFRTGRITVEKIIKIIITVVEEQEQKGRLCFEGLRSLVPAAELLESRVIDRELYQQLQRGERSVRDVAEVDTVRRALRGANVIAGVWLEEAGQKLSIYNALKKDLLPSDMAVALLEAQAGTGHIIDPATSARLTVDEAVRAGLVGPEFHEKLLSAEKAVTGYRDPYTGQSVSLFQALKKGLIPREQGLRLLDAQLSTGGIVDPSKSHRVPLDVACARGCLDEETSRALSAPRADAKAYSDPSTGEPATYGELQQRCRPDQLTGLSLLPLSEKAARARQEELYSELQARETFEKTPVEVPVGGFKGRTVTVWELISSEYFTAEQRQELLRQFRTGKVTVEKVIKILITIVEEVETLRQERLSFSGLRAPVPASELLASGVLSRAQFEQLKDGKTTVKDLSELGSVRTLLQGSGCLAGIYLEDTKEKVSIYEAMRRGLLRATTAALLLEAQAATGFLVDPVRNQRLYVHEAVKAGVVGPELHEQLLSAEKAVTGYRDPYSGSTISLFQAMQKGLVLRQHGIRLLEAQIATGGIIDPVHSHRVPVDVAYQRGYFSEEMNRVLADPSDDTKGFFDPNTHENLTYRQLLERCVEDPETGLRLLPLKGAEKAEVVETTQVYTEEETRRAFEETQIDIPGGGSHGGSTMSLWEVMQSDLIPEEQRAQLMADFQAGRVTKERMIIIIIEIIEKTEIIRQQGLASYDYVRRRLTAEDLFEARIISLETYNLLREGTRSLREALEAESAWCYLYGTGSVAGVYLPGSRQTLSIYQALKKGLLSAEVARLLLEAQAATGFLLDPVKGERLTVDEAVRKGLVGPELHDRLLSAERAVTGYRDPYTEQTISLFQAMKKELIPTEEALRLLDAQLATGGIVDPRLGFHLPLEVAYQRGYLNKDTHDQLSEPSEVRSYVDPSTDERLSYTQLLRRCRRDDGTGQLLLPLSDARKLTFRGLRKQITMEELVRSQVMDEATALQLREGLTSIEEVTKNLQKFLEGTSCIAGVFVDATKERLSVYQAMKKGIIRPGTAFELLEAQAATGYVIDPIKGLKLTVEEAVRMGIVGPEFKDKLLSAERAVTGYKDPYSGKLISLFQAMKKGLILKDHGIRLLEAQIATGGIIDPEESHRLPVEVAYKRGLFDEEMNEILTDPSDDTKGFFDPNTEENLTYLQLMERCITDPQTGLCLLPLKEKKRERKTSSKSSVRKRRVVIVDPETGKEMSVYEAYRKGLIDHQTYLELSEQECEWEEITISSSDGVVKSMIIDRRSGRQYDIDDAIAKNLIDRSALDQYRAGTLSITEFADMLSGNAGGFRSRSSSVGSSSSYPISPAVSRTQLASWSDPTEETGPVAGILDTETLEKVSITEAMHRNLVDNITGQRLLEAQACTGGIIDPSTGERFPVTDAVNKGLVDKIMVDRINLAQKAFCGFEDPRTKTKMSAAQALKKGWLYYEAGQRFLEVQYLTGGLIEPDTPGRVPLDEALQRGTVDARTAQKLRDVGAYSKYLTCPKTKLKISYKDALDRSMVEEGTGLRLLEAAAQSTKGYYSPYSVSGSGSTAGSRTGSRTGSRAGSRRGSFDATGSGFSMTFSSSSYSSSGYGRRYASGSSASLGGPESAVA
Chain of cysteines in MDA-MB-231 and Ramos cells (Homo sapiens, UniProt Q15118) (Q15118 29-436): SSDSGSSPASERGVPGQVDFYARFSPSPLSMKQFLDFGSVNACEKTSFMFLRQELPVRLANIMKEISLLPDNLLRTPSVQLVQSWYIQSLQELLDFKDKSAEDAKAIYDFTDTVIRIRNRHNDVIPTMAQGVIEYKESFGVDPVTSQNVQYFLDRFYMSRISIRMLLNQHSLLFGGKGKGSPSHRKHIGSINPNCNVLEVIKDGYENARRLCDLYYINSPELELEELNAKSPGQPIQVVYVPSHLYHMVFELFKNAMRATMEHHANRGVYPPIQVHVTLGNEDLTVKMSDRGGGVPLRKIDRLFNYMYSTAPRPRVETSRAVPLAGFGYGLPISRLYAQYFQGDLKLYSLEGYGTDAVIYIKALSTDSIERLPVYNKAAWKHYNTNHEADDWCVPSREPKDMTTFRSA

Take `COc1ccc2c(c1)CCCN2C(=O)CCl` [compound 2]: the “isoTOP-ABPP reactivity O14980_0528 XPO1” value in [1] (200 μM, insitu, 231) is recorded as 20.0. For the same molecule, in assay [2] (200 μM, insitu, 231), the “isoTOP-ABPP reactivity Q14137_C404 BOP1” value is reported as 20.0. Also, the “isoTOP-ABPP reactivity Q15118_C71 PDK1” value in [3] (200 μM, insitu, 231) is 20.0. Also, the “isoTOP-ABPP reactivity Q2NL82_C126 TSR1” value in [4] (200 μM, insitu, 231) is 20.0. The “isoTOP-ABPP reactivity Q8NFH5_C255 NUP35” value in assay [5] (200 μM, insitu, 231) amounted to 5.1. Further, the “isoTOP-ABPP reactivity Q9UJW0_C258 DCTN4” value in assay [6] (200 μM, insitu, 231) is given as 4.0.
In the case of `COc1ccc(C2CC(c3cccs3)=NN2C(=O)CCl)cc1` (stereo not shown) [compound 4], the “isoTOP-ABPP reactivity O14980_0528 XPO1” value in assay [1] (100 μM in situ 231) was determined as 1.9. In addition, the “isoTOP-ABPP reactivity P27707_C9 DCK” value in assay [7] (100 μM in situ 231) amounted to 1.4. Besides, in assay [8] (100 μM in situ 231), the “isoTOP-ABPP reactivity P48643_C253 CCT5” value was found to be 0.8. For the same molecule, the “isoTOP-ABPP reactivity Q14137_C404 BOP1” value in assay [2] (100 μM in situ 231) stood at 1.2. In addition, the “isoTOP-ABPP reactivity Q15118_C71 PDK1” value in [3] (100 μM in situ 231) is on record as 20.0. In addition, in [9] (100 μM in situ 231), the “isoTOP-ABPP reactivity Q15149_C4574 PLEC” value is given as 4.2. The “isoTOP-ABPP reactivity Q2NL82_C126 TSR1” value in [4] (100 μM in situ 231) is reported as 13.8. For the same molecule, in assay [5] (100 μM in situ 231), the “isoTOP-ABPP reactivity Q8NFH5_C255 NUP35” value was found to be 3.9. In addition, the “isoTOP-ABPP reactivity Q96RU2_C171 USP28” value in assay [10] (100 μM in situ 231) was 20.0.
`COc1cc2c(cc1OC)CN(C(=O)CCl)CC2` [compound 8]: the “isoTOP-ABPP reactivity P48643_C253 CCT5” value in [8] (200 μM, insitu, 231) was 0.8. Also, in assay [3] (200 μM, insitu, 231), the “isoTOP-ABPP reactivity Q15118_C71 PDK1” value amounted to 20.0. In addition, the “isoTOP-ABPP reactivity Q96RU2_C171 USP28” value in [10] (200 μM, insitu, 231) came out at 1.2. Further, the “isoTOP-ABPP reactivity Q9UJW0_C258 DCTN4” value in assay [6] (200 μM, insitu, 231) was 20.0.
Turning to `O=C(CCl)N1CCC(Cc2ccccc2)CC1` [compound 9], in assay [7] (200 μM, insitu, 231), the “isoTOP-ABPP reactivity P27707_C9 DCK” value is on record as 4.9. Further, the “isoTOP-ABPP reactivity Q15149_C4574 PLEC” value in [9] (200 μM, insitu, 231) was found to be 0.8.
In the case of `O=C(CCl)N1CCN(S(=O)(=O)c2ccccc2F)CC1` [compound 10], the “isoTOP-ABPP ratio O14980_C528” value amounted to 1.3 in assay [1] (200 μM, insitu, 231) and 0.7 in [1] (200 μM, insitu, ramos). Also, the “isoTOP-ABPP ratio P27707_C9” value is 1.9 in [7] (200 μM, insitu, 231) and 1.7 in assay [7] (200 μM, insitu, ramos). Moreover, in assay [8] (200 μM, insitu, ramos), the “isoTOP-ABPP ratio P48643_C253” value turned out to be 0.9. Further, the “isoTOP-ABPP ratio, cysteine Q14137_C404” value in assay [2] (200 μM, insitu, 231) turned out to be 20.0. Besides, the “isoTOP-ABPP ratio Q15118_C71” value in assay [3] (200 μM, insitu, 231) worked out at 18.0; in assay [3] (200 μM, insitu, ramos), 2.7. Moreover, the “isoTOP-ABPP ratio, cysteine Q15149_C4574” value in assay [9] (200 μM, insitu, 231) is given as 2.2. For the same molecule, in assay [4] (200 μM, insitu, 231), the “isoTOP-ABPP ratio, cysteine Q2NL82_C126” value was found to be 4.9. In addition, the “isoTOP-ABPP ratio Q8NFH5_C255” value in [5] (200 μM, insitu, 231) is 3.5. In addition, the “isoTOP-ABPP ratio Q9UJW0_C258” value in assay [6] (200 μM, insitu, 231) is 20.0; in assay [6] (200 μM, insitu, ramos) it was 20.0.
For the molecule `Cn1cc(S(=O)(=O)N2CCOCC2)cc1C(=O)NC(=O)CCl` [compound 11], the “isoTOP-ABPP ratio O14980_C528” value in assay [1] (100 μM in situ 231) was 0.7. In [7] (100 μM in situ 231), the “isoTOP-ABPP ratio P27707_C9” value amounted to 0.5. For the same molecule, the “isoTOP-ABPP ratio P48643_C253” value in assay [8] (100 μM in situ 231) was 0.6. The “isoTOP-ABPP ratio Q15118_C71” value in [3] (100 μM in situ 231) is on record as 0.6. Moreover, in [9] (100 μM in situ 231), the “isoTOP-ABPP ratio, cysteine Q15149_C4574” value was 1.1. Besides, the “isoTOP-ABPP ratio Q8NFH5_C255” value in assay [5] (100 μM in situ 231) was 1.3. Further, the “isoTOP-ABPP ratio, cysteine Q96RU2_C171” value in assay [10] (100 μM in situ 231) was 2.2. Also, in assay [6] (100 μM in situ 231), the “isoTOP-ABPP ratio Q9UJW0_C258” value was 20.0.
Consider `O=C(CCl)NCCc1c[nH]c2ccccc12` [compound 13], for which the “isoTOP-ABPP ratio O14980_C528” value in assay [1] (200 μM, insitu, 231) is recorded as 1.1; in [1] (200 μM, insitu, ramos), 1.1. Further, the “isoTOP-ABPP ratio P27707_C9” value is recorded as 1.0 in [7] (200 μM, insitu, 231) and 1.3 in assay [7] (200 μM, insitu, ramos). Besides, the “isoTOP-ABPP ratio, cysteine Q14137_C404” value in [2] (200 μM, insitu, 231) was found to be 1.1. Also, in [11], the “isoTOP-ABPP ratio, cysteine Q14980_C961” value turned out to be 2.2. Moreover, the “isoTOP-ABPP ratio Q15118_C71” value in assay [3] (200 μM, insitu, 231) came out at 1.6. Besides, the “isoTOP-ABPP ratio, cysteine Q15149_C4574” value in [9] (200 μM, insitu, 231) turned out to be 1.4. For the same molecule, the “isoTOP-ABPP ratio Q8NFH5_C255” value in [5] (200 μM, insitu, 231) is given as 1.5. Moreover, the “isoTOP-ABPP ratio Q9UJW0_C258” value in assay [6] (200 μM, insitu, ramos) was 1.9.

Values taken from patent US10670605B2, “Cysteine reactive probes and uses thereof” (The Scripps Research Institute, priority 2015, dated 2020).
